{"source": "patent US9663478B2", "about": "“Benzotriazine oxides as drugs targeting Mycobacterium tuberculosis” (priority 2011, dated 2017)", "key": {"NRP Mtb H37Rv cells": {"tested_on": "NRP Mtb H37Rv cells", "test": "Low-oxygen recovery assay (LORA) MIC", "assay_type": "cell-based, Mycobacterium tuberculosis", "conditions": "Mycobacterium tuberculosis, H37RV; NRP Mtb; Tables 1-4 and text; read-out: LORA MIC - ITR"}, "[1]": {"tested_on": "Salmonella typhimurium tester strain TA98", "test": "Salmonella/microsome plate incorporation assay (Ames screen), TA98", "assay_type": "cell-based", "text": "A liability in developing any bioreductively-activated antimicrobial drug is the potential for mutagenicity. Because the basis for activity of these compounds is the generation of intermediate radical species, undesirable mutagenicity poses a risk, as has been documented for many classes of bioreductive drugs, including the BTO tirapazamine (TPZ).^19,20 The most convenient methodology for assessing the potential to induce genetic damage is to use the plate incorporation method with Salmonella typhimurium strains TA98 and TA100, commonly known as the Ames assay. The Salmonella tester strains have mutations in the histidine operon, a mutation that leads to defective lipopolysaccharide (rfa), and a deletion that covers genes involved in the synthesis of biotin (bio) and in the repair of ultraviolet-induced DNA damage (uvrB).^21,22 These mutations make the strains more permeable to many molecules and increase their susceptibility to the mutagenic effects of these molecules. Given that the hypothesized mechanism of the BTO compounds is to selectively form cytotoxic radical species in bacteria over mammalian cells, a microbial mutagenicity assay is not ideal, but was used to benchmark their activities in this assay. […] Individual plate counts and their means and standard deviations, along with the condition of the background lawn, are presented in SI Table 2.\nExperimental compounds were screened for microbial mutagenicity activity using the plate incorporation method with Salmonella typhimurium tester strains TA98 and TA100, in the presence and absence of an Aroclor 1254-induced rat-liver metabolic activation system containing 10% S9 (MA). The presence of the appropriate genetic characteristics was verified for the strains used in this study. Stock solutions were made by dissolving each test sample in dimethyl sulfoxide (DMSO) at 5 mg/ml. These initial stock concentrations were then serially diluted to achieve dose formulations of 100, 50, 10, 5, 1, 0.5, and 0.1 μg/plate (dosing volume 100 μl). Test plates were compared with the control plates for their revertant count and for the condition of the background bacterial lawn. A test article was considered a mutagen when the mean number of revertant colonies on the test plates exceeds the mean solvent control counts by at least a two-fold margin. Dose relatedness was also taken into account when evaluating a mutagenic response. Cytotoxicity was estimated by several parameters: a substantial decrease in the number of revertant colonies on the test plates, clearing or absence of the background bacterial lawn growth, formation of pinpoint nonrevertant colonies, or complete absence of bacterial growth."}, "[2]": {"tested_on": "Enterococcus faecium ATCC 19434", "test": "Spectrum of antimicrobial activity", "assay_type": "cell-based"}, "[3]": {"tested_on": "Enterococcus fecalis ATCC 51575", "test": "Spectrum of antimicrobial activity", "assay_type": "cell-based"}, "[4]": {"tested_on": "Klebsiella pneumoniae ATCC 43816", "test": "Spectrum of antimicrobial activity", "assay_type": "cell-based"}, "Mtb H37Rv": {"tested_on": "Mtb H37Rv", "test": "TB MIC - ITR (UIC), Institute for Tuberculosis Research", "assay_type": "cell-based, Mycobacterium tuberculosis", "conditions": "Mycobacterium tuberculosis, H37RV, read-out: TB MIC - ITR"}, "[5]": {"tested_on": "Escherichia coli ATCC 25922", "test": "Spectrum of antimicrobial activity", "assay_type": "cell-based"}, "[6]": {"tested_on": "Pseudomonas aeruginosa ATCC 27853", "test": "Spectrum of antimicrobial activity", "assay_type": "cell-based"}, "[7]": {"tested_on": "Klebsiella pneumoniae ATCC 700721", "test": "Spectrum of antimicrobial activity", "assay_type": "cell-based"}, "[8]": {"tested_on": "Staphylococcus aureus HA-MRSA NRS 382", "test": "Spectrum of antimicrobial activity", "assay_type": "cell-based"}, "[9]": {"tested_on": "Salmonella choleraesuis ATCC 13311", "test": "Spectrum of antimicrobial activity", "assay_type": "cell-based"}, "[10]": {"tested_on": "Enterobacter aerogenes ATCC 29751", "test": "Spectrum of antimicrobial activity", "assay_type": "cell-based"}, "[11]": {"tested_on": "Enterobacter aerogenes SRI Collection", "test": "Spectrum of antimicrobial activity", "assay_type": "cell-based"}, "[12]": {"tested_on": "Acinetobacter baumannii ATCC 17978", "test": "Spectrum of antimicrobial activity", "assay_type": "cell-based"}, "[13]": {"test": "Plasma pharmacokinetics in female mice after oral administration", "assay_type": "in vivo, mouse", "conditions": "female Balb/c mice, po 100 mg/kg"}, "[14]": {"tested_on": "Mycobacterium smegmatis ATCC 10143", "test": "Spectrum of antimicrobial activity", "assay_type": "cell-based"}, "[15]": {"tested_on": "Mycobacterium abscessus ATCC 19977", "test": "Spectrum of antimicrobial activity", "assay_type": "cell-based"}, "[16]": {"conditions": "TA98, with metabolic activation (10% S9), 0.1 μg per plate"}, "[17]": {"conditions": "TA98, with metabolic activation (10% S9), 0.5 μg per plate"}, "[18]": {"conditions": "TA98, with metabolic activation (10% S9), 1 μg per plate"}, "[19]": {"conditions": "TA98, with metabolic activation (10% S9), 5 μg per plate"}, "[20]": {"conditions": "TA98, with metabolic activation (10% S9), 10 μg per plate"}, "[21]": {"conditions": "TA98, with metabolic activation (10% S9), 50 μg per plate"}, "[22]": {"conditions": "TA98, with metabolic activation (10% S9), 100 μg per plate"}, "[23]": {"conditions": "TA98, without metabolic activation, 0.1 μg per plate"}, "[24]": {"conditions": "TA98, without metabolic activation, 0.5 μg per plate"}, "[25]": {"conditions": "TA98, without metabolic activation, 1 μg per plate"}, "[26]": {"conditions": "TA98, without metabolic activation, 5 μg per plate"}, "[27]": {"conditions": "TA98, without metabolic activation, 10 μg per plate"}, "[28]": {"conditions": "TA98, without metabolic activation, 50 μg per plate"}, "[29]": {"conditions": "TA98, without metabolic activation, 100 μg per plate"}}}
{"smiles": "[O-][n+]1nc(N2CCCC2)[n+]([O-])c2cc3c(cc21)CCC3", "note": "[Compound 20q, 3-(pyrrolidin-1-yl)-7,8-dihydro-6H-indeno[5,6-e][1,2,4]triazine 1,4-dioxide]", "values": [{"measurement": "MIC", "setting": "NRP Mtb H37Rv cells", "result": 0.99, "unit": "µg/mL"}, {"measurement": "Mean revertants per plate", "setting": "[1]; [16]", "result": 39.5}, {"measurement": "Ratio treated/solvent", "setting": "[1]; [16]", "result": 1.4}, {"measurement": "Mean revertants per plate", "setting": "[1]; [17]", "result": 30.0}, {"measurement": "Ratio treated/solvent", "setting": "[1]; [17]", "result": 1.1}, {"measurement": "Mean revertants per plate", "setting": "[1]; [18]", "result": 47.5}, {"measurement": "Ratio treated/solvent", "setting": "[1]; [18]", "result": 1.7}, {"measurement": "Mean revertants per plate", "setting": "[1]; [19]", "result": 124.0}, {"measurement": "Ratio treated/solvent", "setting": "[1]; [19]", "result": 4.5}, {"measurement": "Mean revertants per plate", "setting": "[1]; [20]", "result": 266.5}, {"measurement": "Ratio treated/solvent", "setting": "[1]; [20]", "result": 9.8}, {"measurement": "Mean revertants per plate", "setting": "[1]; [21]", "result": 988.0}, {"measurement": "Ratio treated/solvent", "setting": "[1]; [21]", "result": 36.1}, {"measurement": "Mean revertants per plate", "setting": "[1]; [22]", "result": 1566.0}, {"measurement": "Ratio treated/solvent", "setting": "[1]; [22]", "result": 57.3}, {"measurement": "Mean revertants per plate", "setting": "[1]; [23]", "result": 33.0}, {"measurement": "Ratio treated/solvent", "setting": "[1]; [23]", "result": 1.0}, {"measurement": "Mean revertants per plate", "setting": "[1]; [24]", "result": 50.5}, {"measurement": "Ratio treated/solvent", "setting": "[1]; [24]", "result": 1.6}, {"measurement": "Mean revertants per plate", "setting": "[1]; [25]", "result": 85.0}, {"measurement": "Ratio treated/solvent", "setting": "[1]; [25]", "result": 2.7}, {"measurement": "Mean revertants per plate", "setting": "[1]; [26]", "result": 241.0}, {"measurement": "Ratio treated/solvent", "setting": "[1]; [26]", "result": 7.5}, {"measurement": "Mean revertants per plate", "setting": "[1]; [27]", "result": 378.5}, {"measurement": "Ratio treated/solvent", "setting": "[1]; [27]", "result": 11.8}, {"measurement": "Mean revertants per plate", "setting": "[1]; [28]", "result": 797.0}, {"measurement": "Ratio treated/solvent", "setting": "[1]; [28]", "result": 24.9}, {"measurement": "Mean revertants per plate", "setting": "[1]; [29]", "result": 1133.0}, {"measurement": "Ratio treated/solvent", "setting": "[1]; [29]", "result": 35.4}, {"measurement": "number of revertant colonies, TA98", "setting": "[1]; presence and absence of metabolic activation", "result": "dose-related increases in the number of revertant colonies"}, {"measurement": "Antimicrobial activity, Enterococcus faecium", "setting": "[2]", "result": ">32", "unit": "µg/mL"}, {"measurement": "Antimicrobial activity, Enterococcus fecalis", "setting": "[3]", "result": ">32", "unit": "µg/mL"}, {"measurement": "Antimicrobial activity, Klebsiella pneumoniae", "setting": "[4]", "result": ">32", "unit": "µg/mL"}, {"measurement": "MIC", "setting": "Mtb H37Rv", "result": 0.46, "unit": "µg/mL"}, {"measurement": "Antimicrobial activity, Escherichia coli", "setting": "[5]", "result": ">32", "unit": "µg/mL"}, {"measurement": "Antimicrobial activity, Pseudomonas aeruginosa", "setting": "[6]", "result": ">32", "unit": "µg/mL"}, {"measurement": "Antimicrobial activity, Klebsiella pneumoniae", "setting": "[7]", "result": ">32", "unit": "µg/mL"}, {"measurement": "Antimicrobial activity, Staphylococcus aureus HA-MRSA", "setting": "[8]", "result": ">32", "unit": "µg/mL"}, {"measurement": "Antimicrobial activity, Salmonella choleraesuis", "setting": "[9]", "result": ">32", "unit": "µg/mL"}, {"measurement": "Antimicrobial activity, Enterobacter aerogenes", "setting": "[10]", "result": ">32", "unit": "µg/mL"}, {"measurement": "Antimicrobial activity, Enterobacter aerogenes", "setting": "[11]", "result": ">32", "unit": "µg/mL"}, {"measurement": "Antimicrobial activity, Acinetobacter baumannii", "setting": "[12]", "result": ">32", "unit": "µg/mL"}, {"measurement": "plasma drug concentration at the 24 hr time point", "setting": "[13]", "result": "lower than the limit of quantitation"}, {"measurement": "Antimicrobial activity, Mycobacterium smegmatis", "setting": "[14]", "result": 2.5, "unit": "µg/mL"}, {"measurement": "susceptibility of M. abscessus", "setting": "[15]", "result": "resistant"}, {"measurement": "Antimicrobial activity, Mycobacterium abscessus", "setting": "[15]; ATCC 19977", "result": ">32", "unit": "µg/mL"}]}
